Assay results: PubChem BioAssay (NCI)
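Tested at 5 concentrations; 48 h exposure; 96-well plates; endpoints linearly interpolated, else capped at highest concentration. GI50 = concentration required for 50% inhibition of growth. TGI denotes the concentration required for complete inhibition of growth.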

Experiments:
Test in all cases: growth of human tumour cells (NCI), 48 h
MCF7 breast = tested on: MCF7 breast
NCI-H23 lung = tested on: NCI-H23 lung
SNB-75 CNS = tested on: SNB-75 CNS
T-47D breast = tested on: T-47D breast
OVCAR-4 ovarian = tested on: OVCAR-4 ovarian
KM12 colon = tested on: KM12 colon
COLO 205 colon = tested on: COLO 205 colon
NCI-H226 lung = tested on: NCI-H226 lung
HCC-2998 colon = tested on: HCC-2998 colon
ACHN renal = tested on: ACHN renal
HL-60(TB) leukemia = tested on: HL-60(TB) leukemia
NCI-H522 lung = tested on: NCI-H522 lung
K-562 leukemia = tested on: K-562 leukemia
BT-549 breast = tested on: BT-549 breast
IGROV1 ovarian = tested on: IGROV1 ovarian
NCI/ADR-RES ovarian = tested on: NCI/ADR-RES ovarian
SNB-19 CNS = tested on: SNB-19 CNS
OVCAR-5 ovarian = tested on: OVCAR-5 ovarian
OVCAR-8 ovarian = tested on: OVCAR-8 ovarian
EKVX NSCLC = tested on: EKVX NSCLC
M14 melanoma = tested on: M14 melanoma
SK-MEL-2 melanoma = tested on: SK-MEL-2 melanoma
A498 renal = tested on: A498 renal
HS 578T breast = tested on: HS 578T breast
SK-MEL-5 melanoma = tested on: SK-MEL-5 melanoma
HT29 colon = tested on: HT29 colon
SW-620 colon = tested on: SW-620 colon
MDA-MB-231 breast = tested on: MDA-MB-231 breast
HOP-92 NSCLC = tested on: HOP-92 NSCLC

Compound: CC(=O)Oc1ccccc1C(=O)[Se]C(=NC(C)C)NC(C)C
- GI50 (MCF7 breast): 1.95 µM
- TGI (MCF7 breast): 4 µM
- GI50 (NCI-H23 lung): 1.94 µM
- TGI (NCI-H23 lung): 4.15 µM
- GI50 (SNB-75 CNS): 1.35 µM
- TGI (SNB-75 CNS): 2.66 µM
- GI50 (T-47D breast): 2.2 µM
- TGI (T-47D breast): 5.26 µM
- GI50 (OVCAR-4 ovarian): 1.72 µM
- TGI (OVCAR-4 ovarian): 3.13 µM
- GI50 (KM12 colon): 1.9 µM
- TGI (KM12 colon): 3.86 µM
- GI50 (COLO 205 colon): 2.35 µM
- TGI (COLO 205 colon): 5.06 µM
- GI50 (NCI-H226 lung): 1.84 µM
- TGI (NCI-H226 lung): 5.7 µM
- GI50 (HCC-2998 colon): 1.86 µM
- TGI (HCC-2998 colon): 3.43 µM
- GI50 (ACHN renal): 1.76 µM
- TGI (ACHN renal): 3.16 µM
- GI50 (HL-60(TB) leukemia): 2.18 µM
- TGI (HL-60(TB) leukemia): 5.7 µM
- GI50 (NCI-H522 lung): 1.69 µM
- TGI (NCI-H522 lung): 3.32 µM
- GI50 (K-562 leukemia): 2.84 µM
- TGI (K-562 leukemia): 9.19 µM
- GI50 (BT-549 breast): 1.52 µM
- TGI (BT-549 breast): 2.88 µM
- GI50 (IGROV1 ovarian): 1.72 µM
- TGI (IGROV1 ovarian): 3.23 µM
- GI50 (NCI/ADR-RES ovarian): 2.22 µM
- TGI (NCI/ADR-RES ovarian): 4.98 µM
- GI50 (SNB-19 CNS): 1.09 µM
- TGI (SNB-19 CNS): 2.37 µM
- GI50 (OVCAR-5 ovarian): 1.76 µM
- TGI (OVCAR-5 ovarian): 3.34 µM
- GI50 (OVCAR-8 ovarian): 1.87 µM
- TGI (OVCAR-8 ovarian): 3.58 µM
- GI50 (EKVX NSCLC): 1.67 µM
- TGI (EKVX NSCLC): 3.16 µM
- GI50 (M14 melanoma): 1.84 µM
- TGI (M14 melanoma): 3.37 µM
- GI50 (SK-MEL-2 melanoma): 1.97 µM
- TGI (SK-MEL-2 melanoma): 4.01 µM
- GI50 (A498 renal): 3.34 µM
- TGI (A498 renal): 20.6 µM
- GI50 (HS 578T breast): 2.4 µM
- TGI (HS 578T breast): 9.15 µM
- GI50 (SK-MEL-5 melanoma): 1.83 µM
- TGI (SK-MEL-5 melanoma): 3.51 µM
- GI50 (HT29 colon): 2.31 µM
- TGI (HT29 colon): 5.84 µM
- GI50 (SW-620 colon): 1.92 µM
- TGI (SW-620 colon): 4.11 µM
- GI50 (MDA-MB-231 breast): 2.16 µM
- TGI (MDA-MB-231 breast): 4.96 µM
- GI50 (HOP-92 NSCLC): 1.91 µM
- TGI (HOP-92 NSCLC): 4.32 µM
